Test results taken from PubChem BioAssay (NCI).
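All cell lines were grown in 96-well plates and treated with compound for 48 hours. GI50 is the concentration that inhibits growth by half. TGI: concentration producing complete growth inhibition.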

Assays:
Experiment in all cases: NCI tumour cell line growth inhibition, 48 h
HOP-62 NSCLC = test system: HOP-62 NSCLC
K-562 leukemia = test system: K-562 leukemia
M14 melanoma = test system: M14 melanoma
MDA-MB-435 = test system: MDA-MB-435
NCI-H522 lung = test system: NCI-H522 lung
NCI/ADR-RES ovarian = test system: NCI/ADR-RES ovarian
SF-268 CNS = test system: SF-268 CNS
SK-MEL-5 melanoma = test system: SK-MEL-5 melanoma
SR leukemia = test system: SR leukemia
OVCAR-3 ovarian = test system: OVCAR-3 ovarian

For `CC1(C)OC2C(=O)C=C(COCc3ccccc3)C2O1` (stereo not given), the TGI (HOP-62 NSCLC) was 79 µM, the TGI (K-562 leukemia) was > 100 µM and the TGI (M14 melanoma) was 92.9 µM. The TGI (MDA-MB-435) was 71.2 µM, the TGI (NCI-H522 lung) was 38 µM and the TGI (NCI/ADR-RES ovarian) was > 100 µM. The TGI (SF-268 CNS) was > 100 µM, the TGI (SK-MEL-5 melanoma) was 25.8 µM and the TGI (SR leukemia) was > 100 µM.

`Cc1cccc(NC(=O)c2sc3nc4c(cc3c2N)CN(Cc2ccccc2)CC4)c1C` was tested, and the GI50 (HOP-62 NSCLC) was 0.261 µM, the TGI (HOP-62 NSCLC) was > 50 µM and the GI50 (K-562 leukemia) was 0.104 µM. For the same molecule, the TGI (K-562 leukemia) was > 50 µM, the GI50 (M14 melanoma) was 0.149 µM and the TGI (M14 melanoma) was 33.2 µM. For the same molecule, the GI50 (MDA-MB-435) was 0.065 µM, the TGI (MDA-MB-435) was 0.181 µM and the GI50 (NCI-H522 lung) was 0.138 µM. For the same molecule, the TGI (NCI-H522 lung) was > 50 µM, the GI50 (NCI/ADR-RES ovarian) was 0.133 µM and the TGI (NCI/ADR-RES ovarian) was > 50 µM. The GI50 (OVCAR-3 ovarian) was 0.194 µM, the TGI (OVCAR-3 ovarian) was 31.9 µM and the GI50 (SF-268 CNS) was 0.387 µM. For the same molecule, the TGI (SF-268 CNS) was > 50 µM, the GI50 (SK-MEL-5 melanoma) was 0.213 µM and the TGI (SK-MEL-5 melanoma) was > 50 µM. The GI50 (SR leukemia) was 0.0941 µM and the TGI (SR leukemia) was > 50 µM.

With `Cc1nc2ccccc2c(/C=C/c2ccc(Br)cc2)c1C(=O)/C=C/c1ccccc1` the GI50 (HOP-62 NSCLC) was 1.76 µM, the TGI (HOP-62 NSCLC) was 3.4 µM and the GI50 (M14 melanoma) was 1.85 µM. For the same molecule, the TGI (M14 melanoma) was 4.48 µM, the GI50 (MDA-MB-435) was 1.94 µM and the TGI (MDA-MB-435) was 4.69 µM. It also gave a GI50 (NCI-H522 lung) of 1.42 µM, a TGI (NCI-H522 lung) of 3.04 µM and a GI50 (NCI/ADR-RES ovarian) of 2.13 µM. For the same molecule, the TGI (NCI/ADR-RES ovarian) was 5.31 µM, the GI50 (OVCAR-3 ovarian) was 1.52 µM and the TGI (OVCAR-3 ovarian) was 3.14 µM. For the same molecule, the GI50 (SF-268 CNS) was 2.14 µM, the TGI (SF-268 CNS) was 6.38 µM and the GI50 (SK-MEL-5 melanoma) was 1.72 µM. The TGI (SK-MEL-5 melanoma) was 3.11 µM, the GI50 (SR leukemia) was 1.24 µM and the TGI (SR leukemia) was 6.6 µM.

In the case of `c1ccc2c3c([nH]c2c1)C1CCCN1CC3` (stereo not given), the TGI (HOP-62 NSCLC) was > 10 µM, the TGI (K-562 leukemia) was > 10 µM and the TGI (M14 melanoma) was > 10 µM. The TGI (MDA-MB-435) was > 10 µM, the TGI (NCI-H522 lung) was > 10 µM and the TGI (NCI/ADR-RES ovarian) was > 10 µM. For the same molecule, the TGI (OVCAR-3 ovarian) was > 10 µM, the TGI (SF-268 CNS) was > 10 µM and the TGI (SK-MEL-5 melanoma) was > 10 µM. For the same molecule, the TGI (SR leukemia) was > 10 µM.

`COc1ccc2c(c1)OC1=C(C(=O)OC1)C2c1cc(OC)c2c(c1)OCO2` (stereo not given) was tested, and the GI50 (HOP-62 NSCLC) was 0.0411 µM, the TGI (HOP-62 NSCLC) was > 100 µM and the GI50 (K-562 leukemia) was 0.033 µM. The TGI (K-562 leukemia) was > 100 µM, the GI50 (M14 melanoma) was 0.0223 µM and the TGI (M14 melanoma) was 0.0552 µM. For the same molecule, the GI50 (MDA-MB-435) was < 0.0122 µM, the TGI (MDA-MB-435) was 0.0371 µM and the GI50 (NCI-H522 lung) was < 0.0111 µM. It also gave a TGI (NCI-H522 lung) of 0.0472 µM, a GI50 (OVCAR-3 ovarian) of 0.0214 µM and a TGI (OVCAR-3 ovarian) of 0.0458 µM. For the same molecule, the GI50 (SF-268 CNS) was 0.0795 µM, the TGI (SF-268 CNS) was > 100 µM and the GI50 (SK-MEL-5 melanoma) was 0.0383 µM. The TGI (SK-MEL-5 melanoma) was 0.325 µM, the GI50 (SR leukemia) was 0.0313 µM and the TGI (SR leukemia) was > 100 µM.

In the case of `CC1=CC(=O)C(O)C2(C)C1CC(O)C13COC4(C)C(OC(=O)C41)C(O)C23` (stereo not given), the GI50 (HOP-62 NSCLC) was 6.12 µM, the TGI (HOP-62 NSCLC) was 36.6 µM and the GI50 (K-562 leukemia) was 5.48 µM. The TGI (K-562 leukemia) was > 100 µM, the GI50 (M14 melanoma) was 4.14 µM and the TGI (M14 melanoma) was 15.4 µM. The GI50 (MDA-MB-435) was 6.86 µM, the TGI (MDA-MB-435) was 43 µM and the GI50 (NCI-H522 lung) was 6.65 µM. The TGI (NCI-H522 lung) was 30.5 µM, the GI50 (NCI/ADR-RES ovarian) was 18.2 µM and the TGI (NCI/ADR-RES ovarian) was 61.3 µM. For the same molecule, the GI50 (OVCAR-3 ovarian) was 19.5 µM, the TGI (OVCAR-3 ovarian) was 62.9 µM and the GI50 (SF-268 CNS) was 12.6 µM. The TGI (SF-268 CNS) was 52.5 µM, the GI50 (SK-MEL-5 melanoma) was 5.06 µM and the TGI (SK-MEL-5 melanoma) was 21.2 µM. The GI50 (SR leukemia) was 0.688 µM and the TGI (SR leukemia) was 6.46 µM.

For `CCN(Cc1ccc(Cl)s1)c1ccc(CO)c(Cl)c1`, the GI50 (HOP-62 NSCLC) was 0.746 µM, the TGI (HOP-62 NSCLC) was 18.4 µM and the GI50 (K-562 leukemia) was 0.575 µM. The TGI (K-562 leukemia) was > 53.9 µM, the GI50 (M14 melanoma) was 10.3 µM and the TGI (M14 melanoma) was 34.3 µM. For the same molecule, the GI50 (MDA-MB-435) was 20.3 µM, the TGI (MDA-MB-435) was 59 µM and the GI50 (NCI-H522 lung) was 15.2 µM. It also gave a TGI (NCI-H522 lung) of 37 µM, a GI50 (NCI/ADR-RES ovarian) of 10.4 µM and a TGI (NCI/ADR-RES ovarian) of 47.1 µM. It also gave a GI50 (OVCAR-3 ovarian) of 0.295 µM, a TGI (OVCAR-3 ovarian) of 1.21 µM and a GI50 (SF-268 CNS) of 17.7 µM. The TGI (SF-268 CNS) was > 60 µM, the GI50 (SK-MEL-5 melanoma) was 1.9 µM and the TGI (SK-MEL-5 melanoma) was 18.1 µM. For the same molecule, the GI50 (SR leukemia) was 17.6 µM and the TGI (SR leukemia) was 57.1 µM.
